This note sets out measurements from ChEMBL document CHEMBL1130264 (J Med Chem, 1997).

Where only a bound is given, the exact number is not on record here.

For assay [1], the target named is Neuronal acetylcholine receptor. The experiment in a line: Compound was evaluated for functional potency and efficacy at rat Nicotinic acetylcholine receptor in PC12 cells (ganglionic). In kind it is cell-based. Particulars: pc-12.
Assay [2] deals with T1, Neuronal acetylcholine receptor subunit alpha-7 (Homo sapiens, UniProt P36544). Put plainly: Compound was evaluated for functional potencies and efficacies at human Nicotinic acetylcholine receptor alpha7.
T1 sequence (P36544 whole entry): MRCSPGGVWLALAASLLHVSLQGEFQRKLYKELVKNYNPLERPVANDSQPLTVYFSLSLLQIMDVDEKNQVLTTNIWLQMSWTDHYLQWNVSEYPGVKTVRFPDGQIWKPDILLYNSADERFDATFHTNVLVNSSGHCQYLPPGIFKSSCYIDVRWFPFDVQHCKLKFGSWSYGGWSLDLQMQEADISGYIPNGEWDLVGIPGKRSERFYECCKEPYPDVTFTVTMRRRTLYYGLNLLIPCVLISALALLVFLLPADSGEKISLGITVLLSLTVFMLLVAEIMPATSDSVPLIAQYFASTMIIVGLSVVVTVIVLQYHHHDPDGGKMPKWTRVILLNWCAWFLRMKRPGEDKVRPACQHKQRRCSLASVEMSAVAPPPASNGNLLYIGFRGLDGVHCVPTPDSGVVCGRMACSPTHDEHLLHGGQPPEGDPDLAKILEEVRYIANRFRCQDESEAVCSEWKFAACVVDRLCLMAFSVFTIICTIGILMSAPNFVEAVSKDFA
The species named for assay [3] is Rattus norvegicus. Put plainly: Compound was evaluated for functional potencies and efficacies at rat nAChR subtype DA release. The class given is organism-based.
For assay [4], the target named is T2, Neuronal acetylcholine receptor; alpha4/beta2 (Rattus norvegicus, UniProt P09483+P12390). The experiment in a line: Compound was evaluated for functional potencies and efficacies at rat Nicotinic acetylcholine receptor alpha4-beta2. In kind it is protein-complex assay.
Assay [5] concerns the target T3, Neuronal acetylcholine receptor subunit alpha-7 (Rattus norvegicus, UniProt Q05941). Put plainly: Functional potency for Nicotinic acetylcholine receptor alpha-7 (rat brain).
The target in assay [6] is T2, Neuronal acetylcholine receptor; alpha4/beta2. Put plainly: Functional potency for Nicotinic acetylcholine receptor alpha4-beta2 (rat brain).
The target is the same in assay [7]. The experiment in a line: Binding potency for Nicotinic acetylcholine receptor alpha4-beta2 (rat brain).
Assay [8] has as its target T3, Neuronal acetylcholine receptor subunit alpha-7. Put plainly: Binding potency for Nicotinic acetylcholine receptor alpha-7 (rat brain).
Assay [9] concerns the target Neuronal acetylcholine receptor; alpha3/beta4 (Homo sapiens, UniProt P30926+P32297). The experiment in a line: Compound was evaluated for functional potencies and efficacies at human Nicotinic acetylcholine receptor subtype IMR-32 (ganglionic). In kind it is protein-complex assay.
Assay [10] is filed under the species Rattus norvegicus. Put plainly: compound was evaluated for functional potencies and efficacies at rat nAChR subtype DA release. In kind it is organism-based.
Assay [11] addresses T4, Neuronal acetylcholine receptor; alpha4/beta2 (Homo sapiens, UniProt P17787+P43681). Put plainly: Compound was evaluated for functional potencies and efficacies at human Nicotinic acetylcholine receptor alpha4-beta2. The class given is protein-complex assay.
Assay [12] concerns the target T5, Neuronal acetylcholine receptor (Rattus norvegicus) (UniProt P04757+P09483+P12389+P12390+P12392+P43144+Q9JLB5+P12391+P43143+P20420+Q05941). The experiment in a line: compound was evaluated for functional potency and efficacy at rat Nicotinic acetylcholine receptor subtype DA release at 10 uM.
The target in assay [13] is T5, Neuronal acetylcholine receptor (Rattus norvegicus). Put plainly: Compound was evaluated for functional potency and efficacy at rat Nicotinic acetylcholine receptor subtype DA release at 1 uM.
Assay [14] addresses T6, Acetylcholine receptor (Torpedo californica, UniProt P02710+P02712+P02714+P02718). The experiment in a line: Functional potency for nAChR subtype Alpha1-beta1 delta gamma (torpedo). In kind it is protein-complex assay.
Assay [15] deals with T6, Acetylcholine receptor. Put plainly: Binding potency for nAChR subtype Alpha-1-beta-1-delta gamma(torpedo). In kind it is protein-complex assay.
Assay [16] has as its target Neuronal acetylcholine receptor. The experiment in a line: Compound was evaluated for functional potencies and efficacies at rat Nicotinic acetylcholine receptor subtype PC12 (ganglionic). Particulars: pc-12. The class given is cell-based.
For assay [17], the target named is T1, Neuronal acetylcholine receptor subunit alpha-7. The experiment in a line: Compound was evaluated for functional potencies and efficacies at human Nicotinic acetylcholine receptor alpha7; low efficacy.
Assay [18] addresses T2, Neuronal acetylcholine receptor; alpha4/beta2. The experiment in a line: Compound was evaluated for functional potencies and efficacies at rat Recombinant Nicotinic acetylcholine receptor alpha4-beta2; low efficacy. In kind it is protein-complex assay.
In assay [19] the target is T4, Neuronal acetylcholine receptor; alpha4/beta2. Put plainly: Compound was evaluated for functional potencies and efficacies at human Nicotinic acetylcholine receptor alpha4-beta2; low efficacy. The class given is protein-complex assay.
Assay [20] concerns the target Muscle-type nicotinic acetylcholine receptor. The experiment in a line: Compound was evaluated for functional potencies and efficacies at human muscle type Nicotinic acetylcholine receptor in TE671 cells. The class given is cell-based. Particulars: te-671.
The target of assay [21] is T1, Neuronal acetylcholine receptor subunit alpha-7. Put plainly: Ability to block activation of acetylcholine-stimulated currents in human alpha-7 homomers expressed in oocytes. The class given is functional, cell-based, Oocyte.
The target in assay [22] is T6, Acetylcholine receptor.
For assay [23], the target named is T6, Acetylcholine receptor. The source holds these as a separate data set.
Assay [24] concerns the target T1, Neuronal acetylcholine receptor subunit alpha-7. The experiment in a line: (§1) Affinity for Nicotinic acetylcholine receptor alpha7.
Assay [25] has as its target T3, Neuronal acetylcholine receptor subunit alpha-7. The assay is described as §1.
In another assay the test system is TE-671. The experiment in a line: Stimulation of ion flux in TE671 cells. In kind it is functional, cell-based. The following applies: Homo sapiens.

T6 sequence (P02710 whole entry): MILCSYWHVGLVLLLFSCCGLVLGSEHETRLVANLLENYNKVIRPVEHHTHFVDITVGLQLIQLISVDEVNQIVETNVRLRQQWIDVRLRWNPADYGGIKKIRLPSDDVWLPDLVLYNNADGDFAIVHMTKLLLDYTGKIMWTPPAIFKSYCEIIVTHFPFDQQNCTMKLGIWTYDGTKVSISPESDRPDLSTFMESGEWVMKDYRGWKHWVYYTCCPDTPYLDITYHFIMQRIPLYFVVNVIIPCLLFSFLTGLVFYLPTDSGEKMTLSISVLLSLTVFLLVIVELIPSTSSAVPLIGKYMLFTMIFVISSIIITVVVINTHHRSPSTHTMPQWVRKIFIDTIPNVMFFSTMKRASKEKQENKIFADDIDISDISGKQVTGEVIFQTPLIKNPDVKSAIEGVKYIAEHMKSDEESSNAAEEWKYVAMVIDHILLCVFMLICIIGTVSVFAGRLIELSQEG
T6 sequence (P02712 whole entry): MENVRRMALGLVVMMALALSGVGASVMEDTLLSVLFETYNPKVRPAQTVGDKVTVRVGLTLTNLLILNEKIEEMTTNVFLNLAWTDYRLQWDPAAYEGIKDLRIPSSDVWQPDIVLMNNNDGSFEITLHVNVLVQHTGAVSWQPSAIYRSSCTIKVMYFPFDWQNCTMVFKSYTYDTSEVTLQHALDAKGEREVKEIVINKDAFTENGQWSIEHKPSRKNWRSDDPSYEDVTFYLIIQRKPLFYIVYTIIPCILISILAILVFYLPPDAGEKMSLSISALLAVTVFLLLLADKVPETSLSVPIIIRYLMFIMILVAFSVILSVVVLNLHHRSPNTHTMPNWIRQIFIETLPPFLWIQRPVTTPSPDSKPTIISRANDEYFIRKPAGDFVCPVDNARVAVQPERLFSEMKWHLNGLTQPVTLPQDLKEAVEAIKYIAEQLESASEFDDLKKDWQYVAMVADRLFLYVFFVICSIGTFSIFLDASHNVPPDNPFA
T6 sequence (P02718 whole entry): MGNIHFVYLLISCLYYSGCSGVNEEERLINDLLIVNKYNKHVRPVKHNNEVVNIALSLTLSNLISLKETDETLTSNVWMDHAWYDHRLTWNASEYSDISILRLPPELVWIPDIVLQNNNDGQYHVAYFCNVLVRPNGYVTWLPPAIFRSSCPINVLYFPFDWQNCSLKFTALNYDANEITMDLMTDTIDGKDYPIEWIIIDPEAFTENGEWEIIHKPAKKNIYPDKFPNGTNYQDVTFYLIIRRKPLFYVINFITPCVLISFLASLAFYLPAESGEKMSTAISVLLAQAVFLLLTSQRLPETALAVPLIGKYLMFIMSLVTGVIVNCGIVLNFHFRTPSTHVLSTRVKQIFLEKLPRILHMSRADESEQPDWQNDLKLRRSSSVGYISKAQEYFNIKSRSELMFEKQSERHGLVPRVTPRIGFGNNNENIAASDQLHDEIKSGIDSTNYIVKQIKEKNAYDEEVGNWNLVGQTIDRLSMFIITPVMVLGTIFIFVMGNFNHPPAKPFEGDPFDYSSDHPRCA
T6 sequence (P02714 whole entry): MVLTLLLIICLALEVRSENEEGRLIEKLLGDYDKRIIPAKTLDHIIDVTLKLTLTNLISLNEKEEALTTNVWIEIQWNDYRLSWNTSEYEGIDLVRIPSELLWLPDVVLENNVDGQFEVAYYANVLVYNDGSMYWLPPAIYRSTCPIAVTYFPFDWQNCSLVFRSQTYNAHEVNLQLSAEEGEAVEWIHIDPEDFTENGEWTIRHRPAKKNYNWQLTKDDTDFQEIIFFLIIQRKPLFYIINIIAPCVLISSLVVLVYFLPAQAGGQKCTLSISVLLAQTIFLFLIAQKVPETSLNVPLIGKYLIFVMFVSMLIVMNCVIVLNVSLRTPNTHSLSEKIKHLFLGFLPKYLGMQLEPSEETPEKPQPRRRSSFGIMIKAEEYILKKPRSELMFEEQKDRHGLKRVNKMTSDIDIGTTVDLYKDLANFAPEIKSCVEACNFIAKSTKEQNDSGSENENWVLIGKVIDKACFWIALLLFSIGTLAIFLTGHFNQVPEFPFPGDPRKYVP
T4 sequence (P17787 whole entry): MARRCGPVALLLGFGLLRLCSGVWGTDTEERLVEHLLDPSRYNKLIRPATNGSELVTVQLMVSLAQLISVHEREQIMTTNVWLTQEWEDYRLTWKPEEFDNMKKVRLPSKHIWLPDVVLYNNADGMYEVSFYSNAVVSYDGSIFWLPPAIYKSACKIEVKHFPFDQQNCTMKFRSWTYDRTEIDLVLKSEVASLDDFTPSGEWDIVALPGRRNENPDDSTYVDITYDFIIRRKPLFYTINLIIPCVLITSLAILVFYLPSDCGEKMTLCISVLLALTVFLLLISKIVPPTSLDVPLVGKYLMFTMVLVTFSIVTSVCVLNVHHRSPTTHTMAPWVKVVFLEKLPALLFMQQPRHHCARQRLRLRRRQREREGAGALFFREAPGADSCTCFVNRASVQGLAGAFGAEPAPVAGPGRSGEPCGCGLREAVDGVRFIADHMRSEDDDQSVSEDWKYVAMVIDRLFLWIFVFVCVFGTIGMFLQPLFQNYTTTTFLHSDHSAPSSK
T4 sequence (P43681 whole entry): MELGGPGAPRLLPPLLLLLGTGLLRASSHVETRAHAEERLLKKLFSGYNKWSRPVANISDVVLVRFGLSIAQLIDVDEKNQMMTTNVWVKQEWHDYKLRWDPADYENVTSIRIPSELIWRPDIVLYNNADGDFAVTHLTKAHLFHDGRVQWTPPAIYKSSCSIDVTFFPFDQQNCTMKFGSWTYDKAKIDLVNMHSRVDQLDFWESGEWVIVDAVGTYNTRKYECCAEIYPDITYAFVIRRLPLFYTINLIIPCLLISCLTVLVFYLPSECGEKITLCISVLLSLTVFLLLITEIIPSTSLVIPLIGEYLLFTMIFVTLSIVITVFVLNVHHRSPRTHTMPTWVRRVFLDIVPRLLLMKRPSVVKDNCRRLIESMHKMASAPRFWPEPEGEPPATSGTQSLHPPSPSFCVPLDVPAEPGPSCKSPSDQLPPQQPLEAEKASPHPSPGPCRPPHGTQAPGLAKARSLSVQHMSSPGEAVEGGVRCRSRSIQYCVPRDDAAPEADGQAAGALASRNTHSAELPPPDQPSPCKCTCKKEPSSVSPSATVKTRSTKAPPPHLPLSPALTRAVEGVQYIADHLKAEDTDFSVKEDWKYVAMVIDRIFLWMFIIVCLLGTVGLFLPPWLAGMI
Neuronal acetylcholine receptor; alpha3/beta4, sequence (P30926 whole entry): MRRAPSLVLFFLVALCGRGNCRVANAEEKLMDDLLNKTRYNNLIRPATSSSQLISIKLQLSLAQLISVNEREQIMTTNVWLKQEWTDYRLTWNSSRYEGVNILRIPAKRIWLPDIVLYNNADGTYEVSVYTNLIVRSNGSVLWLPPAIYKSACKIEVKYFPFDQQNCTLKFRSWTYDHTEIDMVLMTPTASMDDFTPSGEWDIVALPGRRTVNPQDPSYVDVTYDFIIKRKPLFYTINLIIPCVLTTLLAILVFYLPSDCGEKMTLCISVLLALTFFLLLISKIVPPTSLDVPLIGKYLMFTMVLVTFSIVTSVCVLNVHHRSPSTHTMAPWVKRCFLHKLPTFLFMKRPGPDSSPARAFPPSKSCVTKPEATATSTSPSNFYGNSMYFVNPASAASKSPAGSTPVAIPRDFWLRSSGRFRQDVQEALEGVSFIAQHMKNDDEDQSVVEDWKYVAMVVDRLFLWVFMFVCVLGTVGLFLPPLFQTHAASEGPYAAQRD
Neuronal acetylcholine receptor; alpha3/beta4, sequence (P32297 whole entry): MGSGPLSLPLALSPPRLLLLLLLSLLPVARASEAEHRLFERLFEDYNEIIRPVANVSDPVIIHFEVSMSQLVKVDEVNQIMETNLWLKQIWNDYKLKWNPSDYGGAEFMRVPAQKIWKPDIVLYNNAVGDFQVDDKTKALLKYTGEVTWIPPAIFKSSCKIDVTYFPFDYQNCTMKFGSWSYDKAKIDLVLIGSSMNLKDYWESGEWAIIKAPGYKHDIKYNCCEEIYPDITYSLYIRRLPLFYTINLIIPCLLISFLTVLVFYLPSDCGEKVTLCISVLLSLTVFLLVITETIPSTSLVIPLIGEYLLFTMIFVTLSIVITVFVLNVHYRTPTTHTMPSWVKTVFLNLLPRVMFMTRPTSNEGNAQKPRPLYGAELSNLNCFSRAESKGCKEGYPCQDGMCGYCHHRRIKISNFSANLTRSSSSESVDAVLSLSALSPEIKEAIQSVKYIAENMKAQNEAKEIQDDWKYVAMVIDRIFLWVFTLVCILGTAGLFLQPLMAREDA

Take `CC(=O)C1=CC[N+](C)(C)CC1`: the EC50 (commonly the concentration at which the effect is half-maximal) in [1] came out at 100 µM.
Consider `CO[C@@H]1CC=C2CCN3CCC4=C(CC(=O)OC4)[C@@]23C1`, for which the EC50 was determined as 19.6 µM in assay [2]; 0.03 µM in the assay listed under Rattus norvegicus [3]; 0.37 µM in assay [4]; 8.9 µM in assay [5]; 0.7 µM in assay [6]. For the same compound, the Ki (commonly a dissociation constant, usually derived from enzyme kinetics or from competition with a known ligand) in assay [7] is 0.04 nM; in assay [8], 0.148 µM.
Turning to `c1cncc(OC[C@@H]2CCN2)c1`, the EC50 in assay [2] turned out to be 8.9 µM; in assay [9] (read-out: EC50) it was 0.7 µM; in the assay filed under Rattus norvegicus [10], 0.003 µM; in [11] it was 0.7 µM.
Turning to `CN1CCC[C@H]1COc1cccnc1`, the values for the Potency in assay [12] and in assay [13] were 90% and 55%, respectively.
As for `Clc1ccc(C2CC3CCC2N3)cn1` (racemic) [EPIBATIDINE], the EC50 in assay [2] was determined as 3.5 µM; in the assay listed under Rattus norvegicus [3], 0.037 µM.
For `Cc1cc([C@@H]2CCCN2C)on1` [ABT-418], the EC50 at Acetylcholine receptor [14] was 411 µM; in [2] it was 264 µM; in assay [9] (read-out: EC50), 64 µM; in the assay filed under Rattus norvegicus [3], 0.38 µM; in assay [4], 6 µM; in [5], 264 µM. This compound displayed a concentration giving a half-maximal response (EC50) in assay [6] of 10 µM. The Ki is > 10 µM at Acetylcholine receptor [15], 7.89 nM in assay [7] and > 10 µM in [8].
Take `O=c1cccc2n1C[C@@H]1CNC[C@H]2C1` [CYTISINICLINE]: the EC50 in assay [2] is 71 µM; in assay [9] (read-out: EC50), 26 µM; in the assay listed under Rattus norvegicus [3], 0.06 µM; in assay [11], 38 µM; in assay [16], 10 µM.
`C[N+]1(C)CCN(c2ccccc2)CC1` [DIMETHYLPHENYLPIPERAZINIUM]: the EC50 in assay [2] stood at 95 µM; in the assay filed under Rattus norvegicus [3] it was 4.3 µM; in [11], 2.5 µM.
For the compound `COc1ccc(/C=C2\CCCN=C2c2cccnc2)c(OC)c1` [GTS-21], the EC50 result in assay [9] was “Low efficacy”; in the assay listed under Rattus norvegicus [3], 10 µM; in [17] it was “Low efficacy”; in assay [18], “Low efficacy”; in assay [19], “Low efficacy”.
`CNC1(C)C2CCC(C2)C1(C)C` (centres undefined) [MECAMYLAMINE]: in [20], the concentration giving a half-maximal response (EC50) was found to be 30 µM. Moreover, in assay [21], the IC50 (as a rule, the midpoint of a concentration-inhibition curve) came to 1.8 µM.
Take `CN1CCC[C@H]1c1cccnc1` [NICOTINE]: the EC50 on Acetylcholine receptor [22] is 60 µM; in the assay listed under Rattus norvegicus [3] it was 0.04 µM. Moreover, the Ki on Acetylcholine receptor [23] was > 10 µM.
Regarding `Cc1ncccc1OC[C@@H]1CCCN1` [POZANICLINE], the EC50 result was “Low efficacy” in assay [9], 1.1 µM in the assay filed under Rattus norvegicus [3], “Low efficacy” in assay [17] and “Low efficacy” in [19]. For the same compound, in assay [24], the Ki is > 10 µM.
Take `CNCC/C=C/c1cccnc1` [RIVANICLINE]: the EC50 worked out at 46 µM in assay [9] (read-out: EC50), 0.94 µM in the assay listed under Rattus norvegicus [3] and 4.3 µM in [11]. The compound further returned an inhibition constant (Ki) in assay [25] of 36 µM.
As to `C[N+](C)(C)CCOC(=O)CCC(=O)OCC[N+](C)(C)C` [SUXAMETHONIUM], in the assay with TE-671, the EC50 worked out at 30 µM.
